From PubChem BioAssay AID504422 (Sanford-Burnham Center for Chemical Genomics, 2011) come the findings set out here.

Active and inactive are the calls of the source. No rule for the calls is given here.

For this experiment, the system named is human hepatocytes, lipid droplet formation imaging. Put plainly: inhibitors of hepatocyte lipid droplet formation, SAR follow-up, imaging, human hepatocytes (AID 504422).
Turning to `CCOc1ccc(CCNC(=O)COC(=O)c2ccc(OC)c(OC)c2OC)cc1OCC`, the IC50 is > 10 µM (inactive).
Under `CCOc1ccc(CCNC(=O)CCc2nnc3ccc(N4CCCCC4)nn23)cc1OCC` stands > 10 µM (inactive); under `CCOc1cc(CCNC(=O)c2cc3ccsc3n2C)ccc1OC`, > 10 µM (inactive).
Under `Cn1c(C(=O)NCCc2ccc3c(c2)OCO3)cc2ccccc21` stands > 10 µM (inactive); under `CCOc1cc(CCNC(=O)c2ccc(N3CCOCC3)s2)ccc1OC`, > 10 µM (inactive).
`COc1ccc(CNC(=O)c2ccc(N3CCOCC3)s2)cc1OC`: the IC50 was > 10 µM (inactive).
The result for `CCOc1ccc(CCNC(=O)c2cc3sc(Cl)cc3n2C)cc1OCC` reads > 10 µM (inactive); that for `CCn1c(C(=O)Nc2ccc3c(c2)OCO3)cc2sccc21`, > 10 µM (inactive).
With `CCOc1ccc(CCNC(=O)c2cc3ccsc3n2CC)cc1OCC`, the IC50 was > 10 µM (inactive).
On to `CCOc1ccc(CCNC(=O)Cn2ncn3nc(-c4ccc(OC)cc4)cc3c2=O)cc1OCC`, for which the IC50 is > 10 µM (inactive).
Under `CCOc1ccc(CCNC(=O)CCc2nc(-c3ccc(OC)cc3)no2)cc1OCC` stands > 10 µM (inactive); under `CCOc1ccc(CCNC(=O)c2nnc(Cc3ccc(F)cc3)o2)cc1OCC`, > 10 µM (inactive); under `COc1ccc(CCNC(=O)c2cc3sc(Cl)cc3n2C)cc1OC`, > 10 µM (inactive).
Take `COc1ccc(CCNC(=O)c2cc3sccc3n2C)cc1OC`: the IC50 was > 10 µM (inactive).
`CCn1c(C(=O)NCc2ccc(OC)c(OC)c2)cc2ccsc21`: the IC50 is > 10 µM (inactive).
Regarding `COc1ccc(CNC(=O)CSc2cc(=O)n(C)c3ccccc23)cc1OC`, the IC50 is > 10 µM (inactive).
Regarding `CCOc1ccc(CCNC(=O)CSc2cc(=O)n(C)c3ccccc23)cc1OCC`, the IC50 is > 10 µM (inactive).
Under `CCOc1ccc(CCNC(=O)Cn2cccc2C(=O)c2ccccc2)cc1OCC` stands > 10 µM (inactive).
Take `CCOc1ccc(CCNC(=O)c2cc3ccsc3n2C)cc1OCC`: the IC50 is > 10 µM (inactive).
Regarding `CCOc1cc(CCNC(=O)c2cc3sccc3n2CC)ccc1OC`, the IC50 is > 10 µM (inactive).
The result for `O=C(NCCc1ccc2c(c1)OCO2)c1cc(-c2ccccc2)c(N2CCOCC2)s1` reads > 10 µM (inactive); that for `CCOc1ccc(CCNC(=O)c2cc(-c3ccccc3)c(N3CCOCC3)s2)cc1OCC`, > 10 µM (inactive).
The result for `COc1ccc(CCNC(=O)COC(=O)c2cc(OC)c(OC)cc2OC)cc1OC` reads > 10 µM (inactive); that for `Cn1c(=O)cc(SCC(=O)NCCc2ccc3c(c2)OCO3)c2ccccc21`, > 10 µM (inactive).
`Cn1c(=O)cc(SCC(=O)NCc2ccc3c(c2)OCO3)c2ccccc21`: the IC50 is > 10 µM (inactive).
In the case of `COc1ccc(CNC(=O)c2cc3ccsc3n2C)cc1OC`, the IC50 is > 10 µM (inactive).
With `CCOc1cc(CCNC(=O)CSc2cc(=O)n(C)c3ccccc23)ccc1OC`, the IC50 is > 10 µM (inactive).
In the case of `O=C(NCCc1ccc2c(c1)OCO2)c1ccc(N2CCOCC2)s1`, the IC50 was > 10 µM (inactive).
The result for `CCn1c(C(=O)Nc2ccc3c(c2)OCO3)cc2ccsc21` reads > 10 µM (inactive); that for `CCn1c(C(=O)NCc2ccc3c(c2)OCO3)cc2sccc21`, > 10 µM (inactive); that for `CCOc1ccc(CCNC(=O)c2cc3ccccc3n2C)cc1OC`, > 10 µM (inactive).
With `CCOc1ccc(CCNC(=O)CCC(=O)N2CCOc3ccccc32)cc1OCC`, the IC50 is > 10 µM (inactive).
Under `CCOc1ccc(CCNC(=O)c2cc(-c3ccccc3)c(N3CCOCC3)s2)cc1OC` stands > 10 µM (inactive); under `CCOc1ccc(CCNC(=O)c2cc3sccc3[nH]2)cc1OCC`, > 10 µM (inactive).
Under `COc1ccc(CCNC(=O)Cn2cccc2C(=O)c2ccccc2C)cc1OC` stands > 10 µM (inactive); under `CCn1c(C(=O)NCCc2ccc(OC)c(OC)c2)cc2sc(Cl)cc21`, > 10 µM (inactive); under `CCOc1ccc(CCNC(=O)CN2C(=O)c3cccnc3Oc3ccc(C)cc32)cc1OCC`, > 10 µM (inactive).
As to `CCOc1ccc(CCNC(=O)COC(=O)c2cc(OC)cc(OC)c2)cc1OCC`, the IC50 was > 10 µM (inactive).
The result for `CCOc1ccc(CCNC(=O)CCC(=O)N2CCSc3ccccc32)cc1OCC` reads > 10 µM (inactive).
Under `CCOc1cc(CCNC(=O)c2cc3ccccc3n2C)ccc1OC` stands > 10 µM (inactive); under `CCn1c(C(=O)NCc2cc(OC)c(OC)c(OC)c2)cc2ccsc21`, > 10 µM (inactive).
Under `CCOc1ccc(CCNC(=O)Cn2cccc2C(=O)c2ccccc2C)cc1OCC` stands > 10 µM (inactive); under `COc1ccc(CCNC(=O)c2cc3ccccc3n2C)cc1OC`, > 10 µM (inactive); under `CCOc1ccc(CCNC(=O)c2ccc(N3CCOCC3)s2)cc1OCC`, > 10 µM (inactive).
In the case of `CCn1c(C(=O)Nc2ccc(OC)c(OC)c2)cc2ccsc21`, the IC50 was > 10 µM (inactive).
As for `CCOc1ccc(CCNC(=O)c2cc3sccc3n2CC)cc1OC`, the IC50 was > 10 µM (inactive).
The result for `CCOc1ccc(CCNC(=O)CCc2nnc3ccc(N4CCCC4)nn23)cc1OCC` reads > 10 µM (inactive); that for `CCOc1ccc(CCNC(=O)c2cc3sccc3n2CC)cc1OCC`, > 10 µM (inactive); that for `CCOc1ccc(CCNC(=O)COC(=O)c2cc(OC)c(OC)c(OC)c2)cc1OCC`, > 10 µM (inactive).
The result for `COc1ccc(CCNC(=O)c2cc(-c3ccccc3)c(N3CCOCC3)s2)c(OC)c1OC` reads > 10 µM (inactive); that for `CCOc1ccc(CCNC(=O)CSc2cc(=O)n(C)c3ccccc23)cc1OC`, > 10 µM (inactive).
Under `Cn1c(C(=O)NCc2ccc3c(c2)OCO3)cc2ccsc21` stands > 10 µM (inactive).
`Cn1c(C(=O)Nc2ccc3c(c2)OCO3)cc2ccsc21`: the IC50 is > 10 µM (inactive).
The result for `COc1ccc(CCNC(=O)CSc2cc(=O)n(C)c3ccccc23)cc1OC` reads > 10 µM (inactive); that for `CCOc1ccc(CCNC(=O)c2cc3ccsc3n2CC)cc1OC`, > 10 µM (inactive).
Under `CCn1c(C(=O)NCCc2ccc(OC)c(OC)c2)cc2ccsc21` stands > 10 µM (inactive).
As for `CCn1c(C(=O)NCc2cc(OC)c(OC)c(OC)c2)cc2sccc21`, the IC50 is > 10 µM (inactive).
With `CCOc1ccc(CCNC(=O)CCC(=O)N2CCOc3ccc(C)cc32)cc1OCC`, the IC50 is > 10 µM (inactive).
As for `CCOc1ccc(CCNC(=O)CCOc2cc(C)ccc2C)cc1OCC`, the IC50 is > 10 µM (inactive).
Consider `COc1cc(CNC(=O)c2cc3ccsc3n2C)cc(OC)c1OC`, for which the IC50 was > 10 µM (inactive).
For the compound `CCOc1cc(CCNC(=O)COc2cc(=O)n(C)c3ccccc23)ccc1OC`, the IC50 was > 10 µM (inactive).
The result for `COc1cc(CNC(=O)CSc2cc(=O)n(C)c3ccccc23)cc(OC)c1OC` reads > 10 µM (inactive); that for `CCOc1cc(CCNC(=O)c2cc(-c3ccccc3)c(N3CCOCC3)s2)ccc1OC`, > 10 µM (inactive).
The result for `CCOc1ccc(CCNC(=O)C2CC=CCC2C(=O)OC(C)C)cc1OCC` (stereo not drawn) reads > 10 µM (inactive).
The result for `CCOc1ccc(CCNC(=O)c2cc3sccc3n2C)cc1OCC` reads > 10 µM (inactive); that for `O=C(NCCc1ccc2c(c1)OCO2)c1cc2sccc2[nH]1`, > 10 µM (inactive); that for `CCOc1ccc(CCNC(=O)COc2cc(=O)n(C)c3ccccc23)cc1OCC`, > 10 µM (inactive).
Regarding `COc1ccc(CNC(=O)c2cc(-c3ccccc3)c(N3CCOCC3)s2)cc1OC`, the IC50 was > 10 µM (inactive).
`CCOc1ccc(CCNC(=O)Cn2nc(C)c3c(C)n(-c4ccccc4)nc3c2=O)cc1OCC`: the IC50 was > 10 µM (inactive).
Consider `CCOc1ccc(CCNC(=O)CN2CCN(Cc3ccccc3C)C2=O)cc1OCC`, for which the IC50 was > 10 µM (inactive).
Take `Cn1c(=O)cc(SCC(=O)Nc2ccc3c(c2)OCO3)c2ccccc21`: the IC50 is > 10 µM (inactive).
`CCOc1ccc(CCNC(=O)CSc2cc(=O)n(C)c3cc(Cl)ccc23)cc1OCC`: the IC50 is > 10 µM (inactive).
Turning to `COc1ccc(CCNC(=O)c2cc(-c3ccccc3)c(N3CCOCC3)s2)cc1OC`, the IC50 is > 10 µM (inactive).
Under `COc1ccc(NC(=O)c2cc3ccsc3n2C)cc1OC` stands > 10 µM (inactive).
As to `CCn1c(C(=O)Nc2ccc(OC)c(OC)c2)cc2sccc21`, the IC50 is > 10 µM (inactive).
The result for `CCOc1ccc(CCNC(=O)CSc2cc(=O)n(CC)c3ccccc23)cc1OCC` reads > 10 µM (inactive); that for `CCOc1cc(CCNC(=O)c2cc3sccc3[nH]2)ccc1OC`, > 10 µM (inactive); that for `CCOc1ccc(CCNC(=O)c2cc3ccsc3n2C)cc1OC`, > 10 µM (inactive).
